Here are results for 24 compounds from US5428059A, “Benzopyran derivatives and an anti-allergic agent possessing the same as the active ingredient” (Dainippon Ink & Chemicals, Inc., priority 1991, dated 1995).

Data set [1] relates to Hartley-type male guinea pigs. Description: Guinea Pig Homogeneous Skin Passive Anaphylaxis Assay (PCA reaction). The class given is in vivo, guinea pig (Hartley-type). To be noted: for inhibition in vivo at 10 mg/kg: 10 mg/kg oral. Put shortly:
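Male Hartley guinea pigs (250~300 g) given intradermal back injections of 120-fold-diluted anti-OVA serum; 48 h later test substance dosed orally at 10 mg/kg, then challenged i.v. with OVA plus Evans Blue. Dye-spot area (long × short diameter, mm^2) measured at 30 min; inhibition % calculated against solvent control.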

The nature of data set [2]: Mouse Acute Toxicity Assay (oral, 7 days observation). Conditions: in vivo, ICR-type male mice, single forced oral administration 1000 and 2000 mg/kg, estimated from survival ratio. As for the experimental part:
Mouse Acute Toxicity Assay
The present Example was carried out in order to confirm the safety of the novel compound according to the present invention. In the following the assay method used will be explained.
Assay method: After ICR-type male mice (body weight=20~25 g) were fasted for 16 hours, each substance to be tested was forcibly administered orally at 1000 mg/kg and 2000 mg/kg to groups of five mice, using a esophageal sound. After administration, the mice were kept in cages for seven days, following which observations were made on the general conditions and existence of dead animals. From the survival ratio of the mice at the end of the observation, the lethal dose 50 (LD50) was estimated.
The results of the mouse acute toxicity assay are recorded in Tables 1 and 2.

The conditions of data set [3]: oral administration; cited from earlier work.
The test system of the next data set is mice. To be noted: Tranilast, cited from earlier work.
Setting [4] is: Cavia porcellus, 48 h after sensitization, read-out: Allergic reaction inhibitory index (%).

Consider `CC(C)=CCC/C(C)=C/COc1c(O)c2cc(O)ccc2oc1=O` [Compound 269, 4,6-(dihydroxy)-3-(geranyloxy)-2H-1-benzopyran-2-one], for which the inhibition in vivo at 10 mg/kg in data set [1] (setting [4]) worked out at 33%. In addition, in data set [2], the LD50 at 168 h is more than 1000 mg/kg.

Turning to `CC(C)=CCC/C(C)=C/COc1ccc2oc(=O)c(O)c(O)c2c1` [Compound 280, 3,4-(dihydroxy)-6-(geranyloxy)-2H-1-benzopyran-2-one], the inhibition in vivo at 10 mg/kg in data set [1] (setting [4]) was determined as 35%. Further, the LD50 at 168 h in data set [2] is more than 1000 mg/kg.

Consider `CC(=O)Oc1ccc2oc(=O)c(OC/C=C(\C)CCC=C(C)C)c(O)c2c1` [Compound 271, 3-(geranyloxy)-4-hydroxy-6-(acetoxy)-2H-1-benzopyran-2-one], for which the inhibition in vivo at 10 mg/kg in data set [1] (setting [4]) is 33%. Besides, the LD50 at 168 h in data set [2] is more than 1000 mg/kg.

As to `COc1c(O)c2cc(OC(C)=O)ccc2oc1=O` [Compound 270, 3-(methoxy)-4-hydroxy-6-(acetoxy)-2H-1-benzopyran-2-one], in data set [1] (setting [4]), the inhibition in vivo at 10 mg/kg came to 35%. The LD50 at 168 h in data set [2] is more than 2000 mg/kg.

Turning to `O=C(O)c1cc(=O)c2c(OCC(O)COc3cccc4oc(C(=O)O)cc(=O)c34)cccc2o1` [Disodium Cromoglicate], the “absorption into the living body” value in data set [3] was “difficult to absorb”.

Take `COc1ccc(/C=C/C(=O)Nc2ccccc2C(=O)O)cc1OC` [Tranilast, reference compound]: the inhibition in vivo at 100 mg/kg in data set [1] (Cavia porcellus, positive control, 100 mg/kg oral, 48 h after sensitization, read-out: Allergic reaction inhibitory index (%)) was determined as 52%. The “anti-allergic action, compounds of the invention (10 mg/kg) versus Tranilast (100 mg/kg)” value in data set [1] (oral) is given as “approximately equal to or less than the anti-allergic action exhibited by the compounds of the present invention”. Also, in the data set on mice (background), the “acute toxic value (LD50)” value was 680 to 780 mg/kg. Moreover, the LD50 in the data set with mice (male mice) is given as 780 mg/kg.

In the case of `CCCCCCCCCCOc1c(OC(C)=O)c(=O)oc2cc(O)ccc12` [Compound 12, 3-(acetoxy)-4-(decyloxy)-7-hydroxy-2H-1-benzopyran-2-one], in data set [1] (setting [4]), the inhibition in vivo at 10 mg/kg turned out to be 30%.

For `COc1cccc2c(O)c(OC/C=C(\C)CCC=C(C)C)c(=O)oc12` [Compound 120, 3-(geranyloxy)-4-hydroxy-8-(methoxy)-2H-1-benzopyran-2-one], the inhibition in vivo at 10 mg/kg in data set [1] (setting [4]) was 33%.

Take `COc1ccc2c(O)c(OC/C=C(\C)CCC=C(C)C)c(=O)oc2c1` [Compound 37, 3-(geranyloxy)-4-hydroxy-7-(methoxy)-2H-1-benzopyran-2-one]: the inhibition in vivo at 10 mg/kg in data set [1] (setting [4]) is 40%.

With `COc1c(O)c2ccc(O)cc2oc1=O` [Compound 14, 3-(methoxy)-4,7-(dihydroxy)-2H-1-benzopyran-2-one], the inhibition in vivo at 10 mg/kg in data set [1] (setting [4]) was 47%.

With `CC(C)=CCC/C(C)=C/COc1c(OC(=O)c2ccccc2)c(=O)oc2c(O)cccc12` [Compound 106, 3-(benzoyloxy)-4-(geranyloxy)-8-hydroxy-2H-1-benzopyran-2-one], in data set [1] (setting [4]), the inhibition in vivo at 10 mg/kg stood at 31%.

With `CCCCCCCCCCOc1cccc2c(OC(C)=O)c(O)c(=O)oc12` [Compound 145, 3-hydroxy-4-(acetoxy)-8-(decyloxy)-2H-1-benzopyran-2-one], the inhibition in vivo at 10 mg/kg in data set [1] (setting [4]) was determined as 32%.

Turning to `CC(=O)Oc1c(O)c(=O)oc2cc(OC/C=C(\C)CCC=C(C)C)ccc12` [Compound 76, 3-hydroxy-4-(acetoxy)-7-(geranyloxy)-2H-1-benzopyran-2-one], the inhibition in vivo at 10 mg/kg in data set [1] (setting [4]) was determined as 32%.

Take `CC(C)=CCC/C(C)=C/COc1ccc2c(OC/C=C(\C)CCC=C(C)C)c(OC(C)C)c(=O)oc2c1` [Compound 88, 3-(isopropoxy)-4,7-(digeranyloxy)-2H-1-benzopyran-2-one]: in data set [1] (setting [4]), the inhibition in vivo at 10 mg/kg came to 30%.

For `CCCCCCCCCCOc1c(OC(C)C)c2c(OC/C=C(\C)CCC=C(C)C)cccc2oc1=O` [Compound 250, 3-(decyloxy)-4-(isopropoxy)-5-(geranyloxy)-2H-1-benzopyran-2-one], the inhibition in vivo at 10 mg/kg in data set [1] (setting [4]) is 31%.

As for `CCCCCCCCCCOc1c(O)c2cc(O)ccc2oc1=O` [Compound 266, 3-(decyloxy)-4,6-(dihydroxy)-2H-1-benzopyran-2-one], in data set [1] (setting [4]), the inhibition in vivo at 10 mg/kg amounted to 33%.

Consider `CC(C)=CCC/C(C)=C/COc1c(O)c(=O)oc2cc(OC(C)C)ccc12` [Compound 54, 3-hydroxy-4-(geranyloxy)-7-(isopropoxy)-2H-1-benzopyran-2-one], for which the inhibition in vivo at 10 mg/kg in data set [1] (setting [4]) stood at 32%.

As for `CC(C)=CCC/C(C)=C/COc1c(O)c(=O)oc2cc(O)ccc12` [Compound 20, 3,7-(dihydroxy)-4-(geranyloxy)-2H-1-benzopyran-2-one], the inhibition in vivo at 10 mg/kg in data set [1] (setting [4]) was 30%.

As to `CC(=O)Oc1c(OC(C)C)c2c(O)cccc2oc1=O` [Compound 185, 3-(acetoxy)-4-(isopropoxy)-5-hydroxy-2H-1-benzopyran-2-one], the inhibition in vivo at 10 mg/kg in data set [1] (setting [4]) came to 30%.

On to `CC(C)=CCC/C(C)=C/COc1ccc2c(O)c(OC/C=C(\C)CCC=C(C)C)c(=O)oc2c1` [Compound 83, 3,7-(digeranyloxy)-4-hydroxy-2H-1-benzopyran-2-one], for which the inhibition in vivo at 10 mg/kg in data set [1] (setting [4]) came out at 34%.

Consider `COc1cccc2c(OC(C)=O)c(O)c(=O)oc12` [Compound 112, 3-hydroxy-4-(acetoxy)-8-(methoxy)-2H-1-benzopyran-2-one], for which the inhibition in vivo at 10 mg/kg in data set [1] (setting [4]) was 32%.

As to `CCCCOc1cccc2oc(=O)c(OC(=O)c3ccccc3)c(OC)c12` [Compound 228, 3-(benzoyloxy)-4-(methoxy)-5-(butoxy)-2H-1-benzopyran-2-one], the inhibition in vivo at 10 mg/kg in data set [1] (setting [4]) came to 34%.

Consider `COc1ccc2c(OC/C=C(\C)CCC=C(C)C)c(O)c(=O)oc2c1` [Compound 38, 3-hydroxy-4-(geranyloxy)-7-(methoxy)-2H-1-benzopyran-2-one], for which, in data set [1] (setting [4]), the inhibition in vivo at 10 mg/kg stood at 31%.

Take `CCCCCCCCCCOc1cccc2c(O)c(OC(C)C)c(=O)oc12` [Compound 147, 3-(isopropoxy)-4-hydroxy-8-(decyloxy)-2H-1-benzopyran-2-one]: the inhibition in vivo at 10 mg/kg in data set [1] (setting [4]) came to 30%.

Broadly, the LD50 is the dose expected to kill half of the subjects tested.
